Measured values from patent US8710233B2 (Gruenenthal GmbH, priority 2005, dated 2014).
“And” between values parts separate entries of the source, which are not always exact repeats. Equal values may be shown once. Read-outs that look alike come from different tables or passages of the source.

Columns and labels:
[1] = target: T1, vanilloid receptor 1 (VR1/TRPV1) of the rat species (Rattus norvegicus, UniProt O35433); assay: FLIPR Ca2+ influx assay on rat dorsal root ganglia cells (pharmacological method I); format: cell-based; settings: for inhibition in percent, Ki (rat) Cap. / inhibition at 1 µM: @ 1 μM, ne = no effect
T1 construct: The spinal column is removed from decapitated rats; from tissue; host or cells: primary cells dissociated from rat dorsal root ganglia
Method in brief: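 Primary rat dorsal root ganglion cells loaded with 2 μM Fluo-4, Ca2+ influx read on FLIPR as peak fluorescence. Triplicates, at least 3 independent experiments.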

VR1/TRPV1 receptor = VR1/TRPV1 receptor (Homo sapiens, UniProt Q8NER1); assay: IC50 (human) after pH stimulus; format: cell-based
vanilloid receptor (VR1) [2] = target: T2, vanilloid receptor (VR1) (Homo sapiens, UniProt Q8NER1); assay: FLIPR Ca2+ influx assay on CHO K1 cells transfected with the VR1 gene (pharmacological method II); format: cell-based; settings: for inhibition in percent, Ki (human) Cap. / inhibition at 1 µM: @ 1 μM, ne = no effect
T2 construct: expressed in transfected cells; host or cells: CHO K1 cells (ECACC), stably transfected

vanilloid receptor (VR1) [3] = target: T2, vanilloid receptor (VR1); assay: as above; format: cell-based
[4] = test system: cold allodynia after chronic constriction injury; assay: Neuropathic pain in mice, Bennet model (chronic constriction injury, cold allodynia); format: in vivo; settings: mouse
Excerpt: VI. Neuropathic Pain in Mice
The efficacy of compounds of general formula I in the treatment of neuropathic pain is investigated by using the Bennet modell (chronic constriction injury; Bennett and Xie, 1988, Pain 33: 87-107.
NMRI mice (weight 16 to 18 g) under ketavet-rompun anaesthesia are supplied with three loose ligatures of the right nervus ischiaticus. The animals develop an oversensitivity to cold at the position of the pad that is innervated by the injured nerve which—after a recovery period of one week—is quantified over a period of three weeks by using a metal plate that is cooled to 4° C. (cold allodynia). The animals are observed for a period of 2 minutes on this plate and the number of brisk withdrawal reactions of the injured nerve is counted. […] The group size is n=10, the stastical significance of efficacy against allodynia (*=p<0.05) is determined by analysis of variance with repeated measurements and post hoc analysis with Bonferroni adjustment.

[5] = test system: capsaicin induced hypothermie; assay: Hypothermie assay in the mouse (capsaicin induced hypothermie); format: in vivo; settings: 0.3 mg/kg body weight po; mouse; read-out: inhibition hypothermie (n = 5)
[6] = test system: formaldehyde induced nociceptive behaviour; assay: Formaldehyde test in mice, second (late) phase; format: in vivo, mouse; settings: 0.3 mg/kg body weight po; mouse; read-out: inhibition formaldehyde test (n = 10)
[7] = @ 10 μM, read-out: inhibition in percent, IC50 (human) after pH stimulus
[8] = CHO-K1, read-out: inhibition in percent, Ki (human) Cap.
[9] = read-out: inhibition in percent, Ki (rat) Cap.
[10] = table 4, capsaicin, read-out: Ki (rat) Cap.
[11] = table 4, capsaicin, read-out: Ki (human) Cap.
[12] = read-out: inhibition in percent, IC50 (human) after pH stimulus
[13] = Table 2, displacement of capsaicin (100 nM), Cheng-Prusoff, read-out: Ki (rat)
[14] = Table 2, displacement of capsaicin (100 nM), Cheng-Prusoff, read-out: Ki (human)

VR1/TRPV1 receptor, sequence (Q8NER1 whole entry): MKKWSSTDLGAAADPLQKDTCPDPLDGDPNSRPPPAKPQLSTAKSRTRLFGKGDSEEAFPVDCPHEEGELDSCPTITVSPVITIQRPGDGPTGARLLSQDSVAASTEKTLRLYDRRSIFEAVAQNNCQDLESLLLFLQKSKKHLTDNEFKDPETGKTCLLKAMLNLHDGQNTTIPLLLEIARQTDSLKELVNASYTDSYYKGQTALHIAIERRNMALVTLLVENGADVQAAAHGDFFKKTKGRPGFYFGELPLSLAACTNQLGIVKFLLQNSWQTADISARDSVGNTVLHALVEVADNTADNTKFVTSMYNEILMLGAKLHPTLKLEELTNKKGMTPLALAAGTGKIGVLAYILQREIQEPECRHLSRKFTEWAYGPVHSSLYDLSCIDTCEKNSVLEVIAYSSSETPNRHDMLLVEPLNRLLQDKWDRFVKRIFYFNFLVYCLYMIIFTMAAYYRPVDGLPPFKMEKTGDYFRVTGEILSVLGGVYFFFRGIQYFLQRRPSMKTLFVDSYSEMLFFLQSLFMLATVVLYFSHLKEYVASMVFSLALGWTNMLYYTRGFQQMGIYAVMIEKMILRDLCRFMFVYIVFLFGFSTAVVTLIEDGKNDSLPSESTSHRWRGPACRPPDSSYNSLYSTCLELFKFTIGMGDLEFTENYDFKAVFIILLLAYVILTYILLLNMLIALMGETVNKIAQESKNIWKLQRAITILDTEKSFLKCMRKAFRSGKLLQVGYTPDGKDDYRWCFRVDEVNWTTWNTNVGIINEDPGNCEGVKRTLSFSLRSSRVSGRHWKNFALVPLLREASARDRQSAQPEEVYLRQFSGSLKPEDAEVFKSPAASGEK
T2 sequence (Q8NER1 whole entry): as above
T1 sequence (O35433 whole entry): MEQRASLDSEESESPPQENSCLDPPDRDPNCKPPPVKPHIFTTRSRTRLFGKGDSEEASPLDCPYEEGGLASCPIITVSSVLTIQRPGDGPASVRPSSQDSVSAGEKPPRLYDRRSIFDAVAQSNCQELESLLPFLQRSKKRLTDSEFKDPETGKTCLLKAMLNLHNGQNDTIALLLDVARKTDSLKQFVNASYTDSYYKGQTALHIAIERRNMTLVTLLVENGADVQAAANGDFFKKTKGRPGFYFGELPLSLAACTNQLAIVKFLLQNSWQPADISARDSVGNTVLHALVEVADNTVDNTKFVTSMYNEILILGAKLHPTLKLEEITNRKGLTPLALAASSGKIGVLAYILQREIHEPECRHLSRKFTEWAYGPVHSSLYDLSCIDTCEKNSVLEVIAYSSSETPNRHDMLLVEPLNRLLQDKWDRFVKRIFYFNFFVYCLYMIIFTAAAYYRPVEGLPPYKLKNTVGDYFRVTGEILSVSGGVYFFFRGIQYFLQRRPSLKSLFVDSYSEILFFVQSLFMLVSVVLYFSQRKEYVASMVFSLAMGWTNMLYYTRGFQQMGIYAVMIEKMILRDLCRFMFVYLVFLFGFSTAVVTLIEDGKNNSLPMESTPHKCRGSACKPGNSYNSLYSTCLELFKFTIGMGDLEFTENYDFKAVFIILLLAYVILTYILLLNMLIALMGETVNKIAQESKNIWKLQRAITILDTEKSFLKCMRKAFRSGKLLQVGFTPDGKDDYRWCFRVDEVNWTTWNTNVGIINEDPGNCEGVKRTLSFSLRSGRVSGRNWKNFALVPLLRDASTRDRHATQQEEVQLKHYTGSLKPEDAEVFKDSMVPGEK

## CC(C(=O)NCc1ncc(C(F)(F)F)cc1N1CCCC1)c1ccc(NS(C)(=O)=O)c(F)c1 (centres unmarked) [Example 78, 2-(3-Fluor-4-(methylsulfonamido)phenyl)-N-((3-(pyrrolidin-1-yl)-5-(trifluoromethyl)pyridin-2-yl)methyl)propanamide]
[1]
  inhibition in percent, Ki (rat) Cap.: 19% @ 1 μM
VR1/TRPV1 receptor; @ 10 μM
  inhibition in percent, IC50 (human) after pH stimulus: 36% @ 10 μM
Vanilloid receptor (VR1) [2]
  inhibition in percent, Ki (human) Cap.: 15% @ 1 μM

## CC(C(=O)NCc1ccc(C(F)(F)F)cc1N)c1ccc(NS(C)(=O)=O)c(F)c1 (centres unmarked) [Example 61, N-(2-amino-4-(trifluoromethyl)benzyl)-2-(3-fluoro-4-(methylsulfonamido)-phenyl)propanamide]
[1]
  inhibition in percent, Ki (rat) Cap.: ne @ 1 μM
VR1/TRPV1 receptor; [7]
  inhibition at 10 µM: 47%
Vanilloid receptor (VR1) [2]
  inhibition in percent, Ki (human) Cap.: ne @ 1 μM

## CC1CCN(c2nc(C(F)(F)F)ccc2CNC(=O)C(C)c2ccc(NS(=O)(=O)C(F)(F)F)c(F)c2)CC1 (centres unmarked) [Example 312, 2-(3-fluoro-4-trifluoromethylsulfonamido-phenyl)-N-(4-methyl-6′-trifluoromethyl-3,4,5,6-tetrahydro-2H-[1,2′]bipyridinyl-3′-ylmethyl)-propionamide]
VR1/TRPV1 receptor; @ 1 μM, ne = no effect
  inhibition in percent, IC50 (human) after pH stimulus: ne @ 1 μM
Vanilloid receptor (VR1) [2]; [8]
  inhibition at 5 µM: 68%

## CC(C(=O)NCc1ccc(C(F)(F)F)nc1N1CCN(c2ccncc2)CC1)c1ccc(NS(C)(=O)=O)c(F)c1 (centres unmarked) [Compound 176]
[1]; [9]
  inhibition at 1 µM: 8%
Vanilloid receptor (VR1) [2]; [8]
  inhibition at 1 µM: 7.2%

## CC(C(=O)NCc1ccc(C(F)(F)F)nc1N1CCC(N2CCCCC2)CC1)c1ccc(NS(C)(=O)=O)c(F)c1 (centres unmarked) [Compound 164]
[1]; [9]
  inhibition at 1 µM: 1.5%
Vanilloid receptor (VR1) [2]; [8]
  inhibition at 1 µM: 20%

## CC(C(=O)NCc1ccc(C(F)(F)F)nc1Nc1ccc(F)cc1)c1ccc(NS(C)(=O)=O)c(F)c1 (centres unmarked) [Example 112, 2-(3-fluoro-4-methylsulfonamido-phenyl)-N-[2-(4-fluoro-phenylamino)-6-trifluoromethyl-pyridin-3-ylmethyl]-propionamide]
[1]; [10]
  Ki: 31.8 nM and 236 nM
Vanilloid receptor (VR1) [3]; [11]
  Ki: 39.2 nM
VR1/TRPV1 receptor; @ 10 μM
  inhibition in percent, IC50 (human) after pH stimulus: 64% @ 10 μM
VR1/TRPV1 receptor; [12]
  inhibition at 25 µM: 67%
Vanilloid receptor (VR1) [2]; [8]
  inhibition at 1 µM: 15%

## CC(C(=O)NCc1ccc(C(F)(F)F)nc1N1CCS(=O)(=O)CC1)c1ccc(NS(C)(=O)=O)c(F)c1 (centres unmarked) [Example 314, N-[2-(1,1-dioxo-1l6-thiomorpholin-4-yl)-6-trifluoromethyl-pyridin-3-ylmethyl]-2-(3-fluoro-4-methylsulfonamido-phenyl)-propionamide]
VR1/TRPV1 receptor; [12]
  inhibition at 5 µM: 14%
VR1/TRPV1 receptor; [7]
  inhibition at 10 µM: 31%
Vanilloid receptor (VR1) [2]; [8]
  inhibition at 5 µM: 46%

## CC(C(=O)NCc1c(CO)cc(C(C)(C)C)nc1OCc1ccccc1)c1ccc(NS(C)(=O)=O)c(F)c1 (centres unmarked) [Compound 223]
Vanilloid receptor (VR1) [2]; CHO-K1, @ 0.1 μM, read-out: inhibition in percent, Ki (human) Cap.
  inhibition at 0.1 µM: 4%

## CC(C(=O)NCc1ccc(C(F)(F)F)nc1N1CCCCC1)c1ccc(NS(C)(=O)=O)c(F)c1 (centres unmarked) [Example 2, 2-(3-fluoro-4-(methylsulfonamido)phenyl)-N-((2-(piperidin-1-yl)-6-(trifluoromethyl)pyridin-3-yl)methyl)propanamide]
[1]; [13]
  Ki: 3.5 nM
Vanilloid receptor (VR1) [3]; [14]
  Ki: 0.4 nM
VR1/TRPV1 receptor; Table 2
  IC50: 218 nM
other
  melting point: 75 to 79 °C

## CC(C(=O)NCc1ccc(C(F)(F)F)nc1OCC1CCNCC1)c1ccc(NS(C)(=O)=O)c(F)c1 (centres unmarked) [Example 343, 2-(3-fluoro-4-methylsulfonamido-phenyl)-N-[2-(piperidin-4-ylmethoxy)-6-trifluoromethyl-pyridin-3-ylmethyl]-propionamide]
VR1/TRPV1 receptor; @ 1 μM, ne = no effect
  inhibition in percent, IC50 (human) after pH stimulus: ne @ 1 μM
Vanilloid receptor (VR1) [2]; [8]
  inhibition at 5 µM: 55%

## Cc1nc(C(F)(F)F)ccc1CNC(=O)C(C)c1ccc(NS(C)(=O)=O)c(F)c1 (centres unmarked) [Example 1, 2-(3-fluoro-4-(methylsulfonamido)phenyl)-N-((2-methyl-6-(trifluoromethyl)pyridin-3-yl)methyl)propanamide]
[1]; [13]
  Ki: 684 nM
Vanilloid receptor (VR1) [3]; [14]
  Ki: 387 nM
other
  melting point: 149 to 152 °C

## CC(C(=O)NCc1c(CO)cc(C(C)(C)C)nc1OCc1ccccc1)c1ccc(NS(C)(=O)=O)c(F)c1 (centres unmarked) [Example 223, N-(2-benzyloxy-6-tert-butyl-4-hydroxymethyl-pyridin-3-ylmethyl)-2-(3-fluoro-4-methylsulfonamido-phenyl)-propionamide]
[1]; [9]
  inhibition at 1 µM: 53%
VR1/TRPV1 receptor; @ 1 μM, ne = no effect
  inhibition in percent, IC50 (human) after pH stimulus: ne @ 1 μM
Vanilloid receptor (VR1) [2]; [8]
  inhibition at 1 µM: 38%

## CC(C(=O)NCc1ccc(C(F)(F)F)nc1OC1CCNCC1)c1ccc(NS(C)(=O)=O)c(F)c1 (centres unmarked) [Compound 344]
Vanilloid receptor (VR1) [2]; [8]
  inhibition at 1 µM: 3%

## CC1CCN(c2nc(C(F)(F)F)ccc2CNC(=O)C(C)c2ccc(NS(=O)(=O)C(F)(F)F)c(F)c2)CC1 (centres unmarked) [Compound 312]
Vanilloid receptor (VR1) [2]; [8]
  inhibition at 1 µM: 7%

## CC(C(=O)NCc1ccc(C(F)(F)F)nc1N1CCC(O)CC1)c1ccc(NS(C)(=O)=O)c(F)c1 (centres unmarked) [Example 269, 2-(3-fluoro-4-methylsulfonamido-phenyl)-N-(4-hydroxy-6′-trifluoromethyl-3,4,5,6-tetrahydro-2H-[1,2′]bipyridinyl-3′-ylmethyl)-propionamide]
[1]
  inhibition in percent, Ki (rat) Cap.: ne @ 1 μM
VR1/TRPV1 receptor; @ 1 μM, ne = no effect
  inhibition in percent, IC50 (human) after pH stimulus: ne @ 1 μM
Vanilloid receptor (VR1) [2]
  inhibition in percent, Ki (human) Cap.: ne @ 1 μM

## CC(C(=O)NCc1ccc(C(F)(F)F)nc1-c1ccc2[nH]ccc2c1)c1ccc(NS(C)(=O)=O)c(F)c1 (centres unmarked) [Example 276, 2-(3-fluoro-4-methylsulfonamido-phenyl)-N-[2-(1H-indol-5-yl)-6-trifluoromethyl-pyridin-3-ylmethyl]-propionamide]
VR1/TRPV1 receptor; @ 0.1 μM, read-out: inhibition in percent, IC50 (human) after pH stimulus
  inhibition at 0.1 µM: 11%
VR1/TRPV1 receptor; @ 1 μM, ne = no effect, read-out: inhibition in percent, IC50 (human) after pH stimulus
  inhibition at 1 µM: 11%
VR1/TRPV1 receptor; [12]
  inhibition at 5 µM: 43%
Vanilloid receptor (VR1) [2]; [8]
  inhibition at 5 µM: 78%

## CC(C(=O)NCc1ccc(C(F)(F)F)nc1N1CCC(Cc2ccccc2)CC1)c1ccc(NS(C)(=O)=O)c(F)c1 (centres unmarked) [Example 104, N-(4-benzyl-6′-trifluoromethyl-3,4,5,6-tetrahydro-2H-[1,2′]bipyridinyl-3′-ylmethyl)-2-(3-fluoro-4-methylsulfonamido-phenyl)-propionamide]
[1]; [10]
  Ki: 0.2 nM
Vanilloid receptor (VR1) [3]; [11]
  Ki: 0.2 nM
VR1/TRPV1 receptor; table 4
  IC50: 40 nM
[4]; 0.0001 mg/kg body weight po
  inhibition Bennet model (n = 10): 0.0001 po 20%

## CC(C(=O)NCc1ccc(C(F)(F)F)nc1N1CCS(=O)(=O)CC1)c1ccc(NS(C)(=O)=O)c(F)c1 (centres unmarked) [Compound 314]
Vanilloid receptor (VR1) [2]; [8]
  inhibition at 1 µM: 12%

## CC(C(=O)NCc1ccc(C(F)(F)F)cc1[N+](=O)[O-])c1ccc(NS(C)(=O)=O)c(F)c1 (centres unmarked) [Example 62, 2-(3-fluoro-4-(methylsulfonamido)phenyl)-N-(2-nitro-4-(trifluoromethyl)-benzyl)propanamide]
[1]
  inhibition in percent, Ki (rat) Cap.: ne @ 1 μM
VR1/TRPV1 receptor; @ 1 μM, ne = no effect
  inhibition in percent, IC50 (human) after pH stimulus: ne @ 1 μM
Vanilloid receptor (VR1) [2]
  inhibition in percent, Ki (human) Cap.: ne @ 1 μM

## CC(C(=O)NCc1ccc(C(F)(F)F)nc1N1CCC(N2CCCC2)CC1)c1ccc(NS(C)(=O)=O)c(F)c1 (centres unmarked) [Example 165, 2-(3-fluoro-4-methylsulfonamido-phenyl)-N-(4-pyrrolidin-1-yl-6′-trifluoromethyl-3,4,5,6-tetrahydro-2H-[1,2′]bipyridinyl-3′-ylmethyl)-propionamide]
[1]; @ 25 μM, read-out: inhibition in percent, Ki (rat) Cap.
  inhibition at 25 µM: 82%
VR1/TRPV1 receptor; [7]
  inhibition at 10 µM: 28%
VR1/TRPV1 receptor; [12]
  inhibition at 25 µM: 40%
[5]
  inhibition in vivo at 0.3 mg/kg: 41%
[6]
  inhibition in vivo at 0.3 mg/kg: 29%
Vanilloid receptor (VR1) [2]; CHO-K1, @ 25 μM, read-out: inhibition in percent, Ki (human) Cap.
  inhibition at 25 µM: 76%

## CC(C(=O)NCc1ccc(C(F)(F)F)nc1OC1CCNCC1)c1ccc(NS(C)(=O)=O)c(F)c1 (centres unmarked) [Example 344, 2-(3-fluoro-4-methylsulfonamido-phenyl)-N-[2-(piperidin-4-yloxy)-6-trifluoromethyl-pyridin-3-ylmethyl]-propionamide]
VR1/TRPV1 receptor; @ 1 μM, ne = no effect
  inhibition in percent, IC50 (human) after pH stimulus: ne @ 1 μM
Vanilloid receptor (VR1) [2]; [8]
  inhibition at 5 µM: 34%

## CCCCCCOc1nc(C(F)(F)F)ccc1CNC(=O)C(C)c1ccc(NS(C)(=O)=O)c(F)c1 (centres unmarked) [Example 91, 2-(3-fluoro-4-methylsulfonamido-phenyl)-N-(2-hexyloxy-6-trifluoromethyl-pyridin-3-ylmethyl)-propionamide]
[1]; Ki (rat) Cap., table 4, capsaicin
  Ki: 0.5 nM
Vanilloid receptor (VR1) [3]; [11]
  Ki: 0.5 nM
VR1/TRPV1 receptor; table 4
  IC50: 29.9 nM
[4]; 0.1 mg/kg body weight po
  inhibition Bennet model (n = 10): 0.1 po 30%
